From ChEMBL document CHEMBL1201862, “PubChem BioAssay data set” (2004)
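Five concentrations, 48 hours, 96-well plates. Here, GI50 denotes the concentration required for 50% inhibition of growth.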 Calls of active or inactive are those of the source. Rule as the data show it: active = GI50 up to about 1.1 µM and inactive = higher.

What was measured:
Assay in all cases: NCI anticancer screen, dose series, 48 h
CAKI-1 = system: CAKI-1
NCI-H23 = system: NCI-H23
UACC-62 = system: UACC-62
SK-MEL-5 = system: SK-MEL-5
OVCAR-4 = system: OVCAR-4
K562 = system: K562
LOX IMVI = system: LOX IMVI
SN12C = system: SN12C
SK-MEL-28 = system: SK-MEL-28
U-251 = system: U-251
HL-60 = system: HL-60
SF-295 = system: SF-295
MOLT-4 = system: MOLT-4
KM12 = system: KM12
SK-MEL-2 = system: SK-MEL-2
HCT-15 = system: HCT-15
SW-620 = system: SW-620
RPMI-8226 = system: RPMI-8226
HT-29 = system: HT-29
EKVX = system: EKVX

| Structure (SMILES) | GI50 (CAKI-1) | GI50 (NCI-H23) | GI50 (UACC-62) | GI50 (SK-MEL-5) | GI50 (OVCAR-4) | GI50 (K562) | GI50 (LOX IMVI) | GI50 (SN12C) | GI50 (SK-MEL-28) | GI50 (U-251) | GI50 (HL-60) | GI50 (SF-295) | GI50 (MOLT-4) | GI50 (KM12) | GI50 (SK-MEL-2) | GI50 (HCT-15) [µM] | GI50 (SW-620) | GI50 (RPMI-8226) | GI50 (HT-29) | GI50 (EKVX) |
| --- | --- | --- | --- | --- | --- | --- | --- | --- | --- | --- | --- | --- | --- | --- | --- | --- | --- | --- | --- | --- |
| O=C(N/N=C\c1cccc2ccccc12)Nc1ccccc1 | > 100 µM (inactive) | > 100 µM (inactive) | > 100 µM (inactive) | > 100 µM (inactive) | > 100 µM (inactive) | > 100 µM (inactive) | > 100 µM (inactive) | > 100 µM (inactive) | > 100 µM (inactive) | > 100 µM (inactive) | > 10 µM (inactive) | > 100 µM (inactive) | > 100 µM (inactive) | > 100 µM (inactive) | > 100 µM (inactive) | > 100 | > 100 µM (inactive) | > 100 µM (inactive) | > 100 µM (inactive) |  |
| COc1ccc(N2CN(C)CSC2=S)cc1 | > 100 µM (inactive) | > 100 µM (inactive) | > 100 µM (inactive) | > 100 µM (inactive) | > 100 µM (inactive) | 21.1 µM (inactive) | 86.7 µM (inactive) | > 100 µM (inactive) | > 100 µM (inactive) | > 100 µM (inactive) | 72.8 µM (inactive) | 23.4 µM (inactive) | 76.7 µM (inactive) | > 100 µM (inactive) | > 100 µM (inactive) | 76 | 43 µM (inactive) | 32.3 µM (inactive) | > 100 µM (inactive) | > 100 µM (inactive) |
| CCCCCCCCCOCC(COP(=O)([O-])OCC[N+](C)(C)C)OC (configuration not stated) | > 100 µM (inactive) | > 100 µM (inactive) | > 100 µM (inactive) | > 100 µM (inactive) | > 100 µM (inactive) | > 100 µM (inactive) | > 100 µM (inactive) | > 100 µM (inactive) | > 100 µM (inactive) | > 100 µM (inactive) | > 100 µM (inactive) | > 100 µM (inactive) | > 100 µM (inactive) | > 100 µM (inactive) | > 100 µM (inactive) | > 100 | > 100 µM (inactive) | > 100 µM (inactive) | > 100 µM (inactive) | > 100 µM (inactive) |
| COC(=O)Cc1c(-c2c(CC(=O)OC)c3ccccc3n2C2OC(COC(C)=O)C(OC(C)=O)C(OC(C)=O)C2OC(C)=O)[nH]c2ccccc12 (configuration not stated) | > 100 µM (inactive) | > 100 µM (inactive) | > 100 µM (inactive) | > 100 µM (inactive) | > 100 µM (inactive) |  |  | > 100 µM (inactive) | > 100 µM (inactive) | > 100 µM (inactive) |  | 90.8 µM (inactive) | > 100 µM (inactive) | 85.3 µM (inactive) | > 100 µM (inactive) | > 100 | > 100 µM (inactive) | > 100 µM (inactive) | > 100 µM (inactive) | > 100 µM (inactive) |
| CC(=O)Nc1ccc2[nH]c(C(=O)N3CC(CCl)c4c3cc(N)c3ccccc43)cc2c1 (configuration not stated) | 0.0129 µM (active) | 0.0102 µM (active) | 0.0101 µM (active) | 0.0115 µM (active) | < 0.01 µM (active) | < 0.0163 µM (active) | < 0.0115 µM (active) | 0.0118 µM (active) | 0.0161 µM (active) | 0.0143 µM (active) | < 0.01 µM (active) | 0.0135 µM (active) | < 0.0115 µM (active) | < 0.01 µM (active) | < 0.0143 µM (active) | 0.0267 | 0.0118 µM (active) | < 0.0171 µM (active) | < 0.0127 µM (active) | < 0.0148 µM (active) |
| NS(=O)(=O)C1CCCCC1C(=O)NNC(=O)C(=O)Nc1nnc(S)[nH]1 (configuration not stated) | > 100 µM (inactive) | > 100 µM (inactive) | > 100 µM (inactive) | > 100 µM (inactive) | > 100 µM (inactive) | > 100 µM (inactive) | > 100 µM (inactive) | > 100 µM (inactive) | > 100 µM (inactive) | > 100 µM (inactive) | > 100 µM (inactive) | > 100 µM (inactive) | > 100 µM (inactive) | > 100 µM (inactive) | > 100 µM (inactive) | > 100 | > 100 µM (inactive) | > 100 µM (inactive) | > 100 µM (inactive) | > 100 µM (inactive) |
| Cc1ccc2c(=O)c3ccccc3sc2c1 | 45.4 µM (inactive) | > 100 µM (inactive) | > 100 µM (inactive) | > 100 µM (inactive) | > 100 µM (inactive) | > 100 µM (inactive) | > 100 µM (inactive) | > 100 µM (inactive) | > 100 µM (inactive) | > 100 µM (inactive) | 26.9 µM (inactive) |  | 72.8 µM (inactive) | 53.7 µM (inactive) |  |  | > 100 µM (inactive) | > 100 µM (inactive) | 77.3 µM (inactive) | 55.2 µM (inactive) |
| O=C1CNC(=O)N1 [HYDANTOIN] | > 1120 µM (inactive) | > 1120 µM (inactive) | > 1120 µM (inactive) | > 1120 µM (inactive) | > 1120 µM (inactive) | 706 µM (inactive) | > 1120 µM (inactive) | > 1120 µM (inactive) | > 1120 µM (inactive) | > 1120 µM (inactive) | > 1120 µM (inactive) | > 1120 µM (inactive) | > 1120 µM (inactive) | > 1120 µM (inactive) | > 1120 µM (inactive) | > 1120 | > 1120 µM (inactive) | > 1120 µM (inactive) | > 1120 µM (inactive) | > 1120 µM (inactive) |
| O=[PH](O)c1cccs1 | > 100 µM (inactive) | > 100 µM (inactive) | > 100 µM (inactive) | > 100 µM (inactive) |  | > 100 µM (inactive) | > 100 µM (inactive) | > 100 µM (inactive) | > 100 µM (inactive) | > 100 µM (inactive) | > 100 µM (inactive) | > 100 µM (inactive) | > 100 µM (inactive) |  |  | > 100 | > 100 µM (inactive) | > 100 µM (inactive) | > 100 µM (inactive) | > 100 µM (inactive) |
| CC(=O)CC(=O)CCC(=O)O [SUCCINYLACETONE] | > 100 µM (inactive) | > 100 µM (inactive) |  |  |  | > 100 µM (inactive) | > 100 µM (inactive) | > 100 µM (inactive) | > 100 µM (inactive) | > 100 µM (inactive) | > 100 µM (inactive) | > 100 µM (inactive) | 57.3 µM (inactive) | 47.4 µM (inactive) | > 100 µM (inactive) | > 100 | > 100 µM (inactive) |  | > 100 µM (inactive) | > 100 µM (inactive) |
| O=C1CCC(c2ccc(Cl)cc2)=NN1c1nsc2ccccc12 |  | 26.7 µM (inactive) | 43.1 µM (inactive) | > 10 µM (inactive) | 36.1 µM (inactive) | 22.2 µM (inactive) | > 10 µM (inactive) | 25.6 µM (inactive) | 31.6 µM (inactive) | 34.1 µM (inactive) | 20 µM (inactive) |  | 19.7 µM (inactive) | 29.2 µM (inactive) | 19.1 µM (inactive) | > 10 | 58.1 µM (inactive) | 19.3 µM (inactive) | 30.1 µM (inactive) | 23.3 µM (inactive) |
| COc1ccc(-c2c3ccccc3c(-c3ccc(OCCCCCBr)cc3)c3ccccc23)cc1 | > 100 µM (inactive) |  | > 100 µM (inactive) |  | > 100 µM (inactive) | > 100 µM (inactive) | > 100 µM (inactive) | > 100 µM (inactive) | > 100 µM (inactive) |  | > 100 µM (inactive) | > 100 µM (inactive) | > 100 µM (inactive) | > 100 µM (inactive) | > 100 µM (inactive) | > 100 | > 100 µM (inactive) | > 100 µM (inactive) | > 100 µM (inactive) | > 100 µM (inactive) |
| CO/N=C1/c2sccc2[C@H](NC(=O)C(F)(F)F)[C@@H]1O | > 100 µM (inactive) | > 100 µM (inactive) | > 100 µM (inactive) | > 100 µM (inactive) | > 100 µM (inactive) | > 100 µM (inactive) | > 100 µM (inactive) | > 100 µM (inactive) | > 100 µM (inactive) | > 100 µM (inactive) | > 100 µM (inactive) | > 100 µM (inactive) | > 100 µM (inactive) |  | > 100 µM (inactive) | > 100 | > 100 µM (inactive) |  | > 100 µM (inactive) | > 100 µM (inactive) |
| CCCCCCCCCCCCCCCC(=O)OC1C(O)C(CO)OC(OC)C1NC(=O)N(CCCl)N=O (configuration not stated) | 32 µM (inactive) | 7.94 µM (inactive) | 2 µM (inactive) | 13.2 µM (inactive) | 20.6 µM (inactive) | 22.3 µM (inactive) | 11.4 µM (inactive) |  | 14.2 µM (inactive) | 5.22 µM (inactive) |  | 10.6 µM (inactive) | 3.08 µM (inactive) | 16.5 µM (inactive) | 23.9 µM (inactive) | 23.7 | 10.9 µM (inactive) | 21.1 µM (inactive) | 12.8 µM (inactive) | 20.1 µM (inactive) |
